# Measured values as given in PMC4268243 (Nuclear medicine and biology, 2014).
# Legend:
# [1] = tested on: DU145 androgen-independent prostate carcinoma cells; test: Amino acid uptake and inhibition in DU145 cells; assay type: cell-based, human; conditions: DU145, 30 minutes incubation
# [2] = tested on: A549 lung adenocarcinoma cells; test: Amino acid uptake and inhibition in A549 cells; assay type: cell-based, human; conditions: A549, 30 minutes incubation
# [3] = tested on: A549 tumor xenograft; test: Biodistribution in A549 tumor-bearing SCID mice; assay type: in vivo; conditions: listed as (R)-[^18F] FAMP 1
# [4] = tested on: SKOV3 estrogen-positive ovarian adenocarcinoma cells; test: Amino acid uptake and inhibition in SKOV3 cells; assay type: cell-based, human; conditions: for Cell uptake: SKOV3, 30 minutes incubation
# [5] = tested on: DU145 tumor xenograft; test: Biodistribution in DU145 tumor-bearing SCID mice; assay type: in vivo; conditions: listed as (R)-[^18F] FAMP 1
# [6] = tested on: U87 tumor xenograft; test: Biodistribution in U87 tumor-bearing SCID mice; assay type: in vivo; conditions: listed as (R)-[^18F] FAMP 1
# [7] = tested on: rat orthotopic brain tumor model; conditions: rat orthotopic brain tumor model, 60 min; cited from earlier work
smiles,measurement,setting,value
CC(N)(C[18F])C(=O)O [(R)-[^18F]1] [2-amino-3-[^18F]fluoro-2-methylpropanoic acid],Cell uptake,[1]; 10 mM BCH,3.3±0.2 % ID/5×10^5 cells
same,Cell uptake,[1]; 10 mM MeAIB,3.6±0.2 % ID/5×10^5 cells
same,Cell uptake,[1]; Control (no inhibitor),5.1±0.1 % ID/5×10^5 cells
same,Cell uptake,[2]; 10 mM BCH,2.3±0.3 % ID/5×10^5 cells
same,Cell uptake,[2]; 10 mM MeAIB,4.6±0.5 % ID/5×10^5 cells
same,Cell uptake,[2]; Control (no inhibitor),5.1±0.3 % ID/5×10^5 cells
same,uptake in blood,[3]; 15 min post injection,2.9±0.4 %ID/g
same,uptake in bone,[3]; 15 min post injection,2.6±0.6 %ID/g
same,uptake in brain,[3]; 15 min post injection,0.8±0.2 %ID/g
same,uptake in heart,[3]; 15 min post injection,4.4±01.0 %ID/g
same,uptake in kidney,[3]; 15 min post injection,18±3.5 %ID/g
same,uptake in liver,[3]; 15 min post injection,4.8±0.5 %ID/g
same,uptake in lung,[3]; 15 min post injection,5.0±0.9 %ID/g
same,uptake in muscle,[3]; 15 min post injection,2.0±0.4 %ID/g
same,uptake in pancreas,[3]; 15 min post injection,54±14 %ID/g
same,uptake in spleen,[3]; 15 min post injection,9.5±3.9 %ID/g
same,uptake in tumor,[3]; 15 min post injection,9.9±1.7 %ID/g
same,uptake in blood,[3]; 30 min post injection,2.0±0.2 %ID/g
same,uptake in bone,[3]; 30 min post injection,2.3±0.6 %ID/g
same,uptake in brain,[3]; 30 min post injection,0.9±0.2 %ID/g
same,uptake in heart,[3]; 30 min post injection,3.5±1.0 %ID/g
same,uptake in kidney,[3]; 30 min post injection,10±1.9 %ID/g
same,uptake in liver,[3]; 30 min post injection,5.7±1.2 %ID/g
same,uptake in lung,[3]; 30 min post injection,3.1±1.0 %ID/g
same,uptake in muscle,[3]; 30 min post injection,2.0±0.6 %ID/g
same,uptake in pancreas,[3]; 30 min post injection,43±11 %ID/g
same,uptake in spleen,[3]; 30 min post injection,7.8±1.6 %ID/g
same,uptake in tumor,[3]; 30 min post injection,7.5±1.9 %ID/g
same,uptake in blood,[3]; 60 min post injection,1.3±0.1 %ID/g
same,uptake in bone,[3]; 60 min post injection,2.0±0.6 %ID/g
same,uptake in brain,[3]; 60 min post injection,1.1±0.3 %ID/g
same,uptake in heart,[3]; 60 min post injection,3.5±0.9 %ID/g
same,uptake in kidney,[3]; 60 min post injection,6.6±1.0 %ID/g
same,uptake in liver,[3]; 60 min post injection,5.3±1.1 %ID/g
same,uptake in lung,[3]; 60 min post injection,2.3±0.5 %ID/g
same,uptake in muscle,[3]; 60 min post injection,1.8±0.2 %ID/g
same,uptake in pancreas,[3]; 60 min post injection,28±6.3 %ID/g
same,uptake in spleen,[3]; 60 min post injection,5.1±1.8 %ID/g
same,uptake in tumor,[3]; 60 min post injection,7.7±1.9 %ID/g
same,uptake in blood,[3]; 120 min post injection,1.3±0.9 %ID/g
same,uptake in bone,[3]; 120 min post injection,2.2±1.1 %ID/g
same,uptake in brain,[3]; 120 min post injection,1.8±0.9 %ID/g
same,uptake in heart,[3]; 120 min post injection,3.9±1.5 %ID/g
same,uptake in kidney,[3]; 120 min post injection,5.5±3.1 %ID/g
same,uptake in liver,[3]; 120 min post injection,7.1±2.4 %ID/g
same,uptake in lung,[3]; 120 min post injection,1.9±0.6 %ID/g
same,uptake in muscle,[3]; 120 min post injection,2.3±1.2 %ID/g
same,uptake in pancreas,[3]; 120 min post injection,20±7.1 %ID/g
same,uptake in spleen,[3]; 120 min post injection,4.9±3.1 %ID/g
same,uptake in tumor,[3]; 120 min post injection,8.8±4.8 %ID/g
same,Cell uptake,[4]; 10 mM BCH,7.6±0.2 % ID/5×10^5 cells
same,Cell uptake,[4]; 10 mM MeAIB,4.6±0.1 % ID/5×10^5 cells
same,Cell uptake,[4]; Control (no inhibitor),9.2±0.2 % ID/5×10^5 cells
same,inhibition of uptake by BCH,"[4]; SKOV3 cells, 10 mM BCH, relative to control",17%
same,inhibition of uptake by MeAIB,"[4]; SKOV3 cells, 10 mM MeAIB, relative to control",50%
same,uptake in blood,[5]; 15 min post injection,5.2±1.2 %ID/g
same,uptake in bone,[5]; 15 min post injection,3.9±1.0 %ID/g
same,uptake in brain,[5]; 15 min post injection,1.0±0.3 %ID/g
same,uptake in heart,[5]; 15 min post injection,5.8±1.5 %ID/g
same,uptake in kidney,[5]; 15 min post injection,26±7.5 %ID/g
same,uptake in liver,[5]; 15 min post injection,7.2±3.4 %ID/g
same,uptake in lung,[5]; 15 min post injection,7.6±1.8 %ID/g
same,uptake in muscle,[5]; 15 min post injection,2.9±0.7 %ID/g
same,uptake in pancreas,[5]; 15 min post injection,62±20 %ID/g
same,uptake in spleen,[5]; 15 min post injection,17±7.6 %ID/g
same,uptake in tumor,[5]; 15 min post injection,8.8±1.9 %ID/g
same,uptake in blood,[5]; 30 min post injection,3.7±0.3 %ID/g
same,uptake in bone,[5]; 30 min post injection,4.0±0.3 %ID/g
same,uptake in brain,[5]; 30 min post injection,1.3±0.1 %ID/g
same,uptake in heart,[5]; 30 min post injection,5.6±0.6 %ID/g
same,uptake in kidney,[5]; 30 min post injection,16±2.2 %ID/g
same,uptake in liver,[5]; 30 min post injection,6.3±0.8 %ID/g
same,uptake in lung,[5]; 30 min post injection,3.1±0.4 %ID/g
same,uptake in muscle,[5]; 30 min post injection,3.5±0.5 %ID/g
same,uptake in pancreas,[5]; 30 min post injection,52±3.8 %ID/g
same,uptake in spleen,[5]; 30 min post injection,13±1.4 %ID/g
same,uptake in tumor,[5]; 30 min post injection,8.4±1.1 %ID/g
same,uptake in blood,[5]; 60 min post injection,2.2±0.3 %ID/g
same,uptake in bone,[5]; 60 min post injection,3.2±0.7 %ID/g
same,uptake in brain,[5]; 60 min post injection,1.5±0.3 %ID/g
same,uptake in heart,[5]; 60 min post injection,4.8±1.0 %ID/g
same,uptake in kidney,[5]; 60 min post injection,10±0.8 %ID/g
same,uptake in liver,[5]; 60 min post injection,5.5±1.0 %ID/g
same,uptake in lung,[5]; 60 min post injection,2.0±0.4 %ID/g
same,uptake in muscle,[5]; 60 min post injection,3.0±0.7 %ID/g
same,uptake in pancreas,[5]; 60 min post injection,39±6.9 %ID/g
same,uptake in spleen,[5]; 60 min post injection,11±2.9 %ID/g
same,uptake in tumor,[5]; 60 min post injection,7.9±1.7 %ID/g
same,uptake in blood,[5]; 120 min post injection,1.6±0.3 %ID/g
same,uptake in bone,[5]; 120 min post injection,2.6±0.5 %ID/g
same,uptake in brain,[5]; 120 min post injection,1.6±0.2 %ID/g
same,uptake in heart,[5]; 120 min post injection,4.9±0.9 %ID/g
same,uptake in kidney,[5]; 120 min post injection,7.9±0.7 %ID/g
same,uptake in liver,[5]; 120 min post injection,3.6±0.6 %ID/g
same,uptake in lung,[5]; 120 min post injection,2.1±0.8 %ID/g
same,uptake in muscle,[5]; 120 min post injection,2.7±0.8 %ID/g
same,uptake in pancreas,[5]; 120 min post injection,27±4.5 %ID/g
same,uptake in spleen,[5]; 120 min post injection,6.0±0.9 %ID/g
same,uptake in tumor,[5]; 120 min post injection,6.8±0.8 %ID/g
same,uptake in blood,[6]; 15 min post injection,3.2±0.2 %ID/g
same,uptake in bone,[6]; 15 min post injection,3.2±1.5 %ID/g
same,uptake in brain,[6]; 15 min post injection,0.8±0.2 %ID/g
same,uptake in heart,[6]; 15 min post injection,4.7±1.2 %ID/g
same,uptake in kidney,[6]; 15 min post injection,23±2.5 %ID/g
same,uptake in liver,[6]; 15 min post injection,7.6±2.9 %ID/g
same,uptake in lung,[6]; 15 min post injection,4.7±0.6 %ID/g
same,uptake in muscle,[6]; 15 min post injection,2.2±0.5 %ID/g
same,uptake in pancreas,[6]; 15 min post injection,62±6.3 %ID/g
same,uptake in spleen,[6]; 15 min post injection,19±6.4 %ID/g
same,uptake in tumor,[6]; 15 min post injection,6.5±1.2 %ID/g
same,uptake in blood,[6]; 30 min post injection,2.6±0.7 %ID/g
same,uptake in bone,[6]; 30 min post injection,3.5±0.5 %ID/g
same,uptake in brain,[6]; 30 min post injection,0.9±0.2 %ID/g
same,uptake in heart,[6]; 30 min post injection,4.3±0.6 %ID/g
same,uptake in kidney,[6]; 30 min post injection,15±2.1 %ID/g
same,uptake in liver,[6]; 30 min post injection,7.7±1.5 %ID/g
same,uptake in lung,[6]; 30 min post injection,3.4±0.5 %ID/g
same,uptake in muscle,[6]; 30 min post injection,2.2±0.5 %ID/g
same,uptake in pancreas,[6]; 30 min post injection,43±8.2 %ID/g
same,uptake in spleen,[6]; 30 min post injection,13±2.4 %ID/g
same,uptake in tumor,[6]; 30 min post injection,6.0±0.9 %ID/g
same,uptake in blood,[6]; 60 min post injection,1.6±0.4 %ID/g
same,uptake in bone,[6]; 60 min post injection,3.2±0.8 %ID/g
same,uptake in brain,[6]; 60 min post injection,1.2±0.2 %ID/g
same,uptake in heart,[6]; 60 min post injection,4.2±0.9 %ID/g
same,uptake in kidney,[6]; 60 min post injection,8.0±1.8 %ID/g
same,uptake in liver,[6]; 60 min post injection,6.9±1.4 %ID/g
same,uptake in lung,[6]; 60 min post injection,2.4±0.6 %ID/g
same,uptake in muscle,[6]; 60 min post injection,2.9±0.6 %ID/g
same,uptake in pancreas,[6]; 60 min post injection,28±5.0 %ID/g
same,uptake in spleen,[6]; 60 min post injection,7.0±1.4 %ID/g
same,uptake in tumor,[6]; 60 min post injection,4.2±0.3 %ID/g
same,uptake in blood,[6]; 120 min post injection,0.8±0.1 %ID/g
same,uptake in bone,[6]; 120 min post injection,1.5±0.2 %ID/g
same,uptake in brain,[6]; 120 min post injection,1.2±0.1 %ID/g
same,uptake in heart,[6]; 120 min post injection,3.6±0.4 %ID/g
same,uptake in kidney,[6]; 120 min post injection,4.2±0.4 %ID/g
same,uptake in liver,[6]; 120 min post injection,8.0±0.7 %ID/g
same,uptake in lung,[6]; 120 min post injection,1.3±0.2 %ID/g
same,uptake in muscle,[6]; 120 min post injection,1.6±0.2 %ID/g
same,uptake in pancreas,[6]; 120 min post injection,15.1±3.2 %ID/g
same,uptake in spleen,[6]; 120 min post injection,3.5±0.4 %ID/g
same,uptake in tumor,[6]; 120 min post injection,3.1±0.8 %ID/g
same,brain uptake,[7],0.1±0.02 %ID/g
